These results are taken from patent publication US20230265151A1, “GIP/GLP1 CO-AGONIST COMPOUNDS” (priority 2020, published 2023).

As usually defined, the Emax is the size of the effect at its maximum, as opposed to the concentration needed. By EC50 is commonly meant the concentration that produces a half-maximal response.

One test has as its target T1, hGIPR (Homo sapiens, UniProt P48546).
T1 construct: expressed in transfected cells
T1 sequence (P48546 22-466): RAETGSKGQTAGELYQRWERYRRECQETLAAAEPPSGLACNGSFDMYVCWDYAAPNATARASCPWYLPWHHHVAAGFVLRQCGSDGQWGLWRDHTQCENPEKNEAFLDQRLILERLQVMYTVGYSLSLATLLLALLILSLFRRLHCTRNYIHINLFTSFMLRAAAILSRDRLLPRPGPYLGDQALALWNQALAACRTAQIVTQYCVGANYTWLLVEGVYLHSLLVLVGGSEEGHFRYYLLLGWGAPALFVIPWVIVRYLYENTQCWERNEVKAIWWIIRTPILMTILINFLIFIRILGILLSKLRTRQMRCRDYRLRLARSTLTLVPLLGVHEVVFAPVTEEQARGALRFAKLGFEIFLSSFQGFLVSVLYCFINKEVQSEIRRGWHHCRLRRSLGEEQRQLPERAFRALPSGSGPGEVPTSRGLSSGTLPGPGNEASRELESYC
As to the kind of experiment: Functional cAMP formation (HTRF) in HEK-293 clonal cells expressing hGIPR, 0.1% bovine casein, without or with 1.0% human serum albumin. Type of test: cell-based. As to conditions: for EC50: geometric mean. The gist of the method: (§1)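 Cells were stimulated with peptide for 30 min at 37° C, then intracellular cAMP was measured by competitive HTRF (665/620 nm ratio) and converted to nM using a cAMP standard curve. Relative EC50 and Emax came from four-parameter logistic fits of percent maximal response against peptide concentration.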
(Changes in cAMP serve as a functional read-out for many G protein-coupled receptors.)

The target in another test is T2, hGCGR (Homo sapiens, UniProt P47871).
T2 construct: expressed in transfected cells
As to the kind of experiment: Functional cAMP formation (HTRF) in HEK-293 clonal cells expressing hGCGR, 0.1% bovine casein, without or with 1.0% human serum albumin. Type of test: cell-based. As to conditions: geometric mean. In a few lines:
as §1

Where [1] appears, read: HEK293, read-out: hGIPR Emax, % ± SEM, percent of maximal response to GIP(1-42)NH2, 37° C., 0.1% bovine casein, arithmetic mean.
[2] abbreviates: hGIPR EC50, nM (SEM, n), cAMP, incubated at 37° C., 0.1% bovine casein (no human serum albumin).
Where [3] appears, read: hGCGR EC50, nM (SEM, n), cAMP, incubated at 37° C., 0.1% bovine casein (no human serum albumin).
[4] abbreviates: HEK293, percent of maximal response to GIP(1-42)NH2, 37° C., 0.1% bovine casein, arithmetic mean, read-out: hGIPR Emax, % ± SEM.
Setting [5] is: cAMP, incubated at 37° C., 0.1% bovine casein (no human serum albumin), read-out: hGIPR EC50, nM (SEM, n).
Setting [6] is: cAMP, incubated at 37° C., 0.1% bovine casein (no human serum albumin), read-out: hGCGR EC50, nM (SEM, n).

Like-named read-outs stand apart in the source and are kept apart here.

T2 sequence (P47871 26-477): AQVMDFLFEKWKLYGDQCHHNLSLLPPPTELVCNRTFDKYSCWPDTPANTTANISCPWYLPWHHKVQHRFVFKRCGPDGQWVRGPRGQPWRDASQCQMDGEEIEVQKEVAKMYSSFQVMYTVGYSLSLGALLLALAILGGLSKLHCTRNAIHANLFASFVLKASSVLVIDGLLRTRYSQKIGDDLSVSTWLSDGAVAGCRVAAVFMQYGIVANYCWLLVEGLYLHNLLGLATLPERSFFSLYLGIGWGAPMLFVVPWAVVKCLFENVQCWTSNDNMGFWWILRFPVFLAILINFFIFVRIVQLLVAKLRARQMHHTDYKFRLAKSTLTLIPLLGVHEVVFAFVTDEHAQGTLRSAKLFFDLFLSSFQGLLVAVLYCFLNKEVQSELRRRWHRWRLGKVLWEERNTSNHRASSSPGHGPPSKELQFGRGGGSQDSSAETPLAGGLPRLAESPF

In the case of `CC[C@H](C)[C@H](NC(=O)[C@H](CC(C)C)NC(=O)[C@](C)(Cc1ccc(O)cc1)NC(=O)[C@H](CCCCNC(=O)COCCOCCNC(=O)COCCOCCNC(=O)COCCOCCNC(=O)CC[C@H](NC(=O)CCCCCCCCCCCCC(=O)O)C(=O)O)NC(=O)[C@@H](NC(=O)[C@H](Cc1ccccc1)NC(=O)[C@H](CCC(=O)O)NC(=O)C(C)(C)NC(=O)[C@H](CCC(N)=O)NC(=O)[C@H](C)NC(=O)[C@H](CCCCNC(=O)COCCOCCNC(=O)COCCOCCNC(=O)COCCOCCNC(=O)CC[C@H](NC(=O)CCCCCCCCCCCCC(=O)O)C(=O)O)NC(=O)[C@H](CCCN)NC(=O)[C@H](CC(=O)O)NC(=O)[C@H](CC(C)C)NC(=O)[C@](C)(CC(C)C)NC(=O)[C@@H](NC(=O)[C@H](CO)NC(=O)[C@H](Cc1ccncc1)NC(=O)[C@H](CC(=O)O)NC(=O)[C@H](CO)NC(=O)[C@@H](NC(=O)[C@](C)(Cc1ccccc1F)NC(=O)[C@@H](NC(=O)CNC(=O)[C@H](CCC(=O)O)NC(=O)C(C)(C)NC(=O)[C@@H](N)Cc1ccc(O)cc1)[C@@H](C)O)[C@@H](C)O)[C@@H](C)CC)[C@@H](C)CC)C(=O)N[C@@H](CCC(=O)O)C(=O)NCC(=O)NCC(=O)N1CCC[C@H]1C(=O)N[C@@H](CO)C(=O)N[C@@H](CO)C(=O)NCC(=O)N[C@@H](C)C(=O)N1CCC[C@H]1C(=O)N1CCC[C@H]1C(=O)N1CCC[C@H]1C(=O)N[C@@H](CO)C(N)=O` [Example 80], the Emax at hGIPR (setting [1]) was 92.4 ± 1.14%. Moreover, the EC50 is 0.0245 nM on hGIPR (setting [2]) and over 9950 nM at hGCGR (setting [3]).
With `CC[C@H](C)[C@H](NC(=O)[C@H](CC(C)C)NC(=O)[C@](C)(Cc1ccc(O)cc1)NC(=O)[C@@H](CCC(=O)O)NC(=O)[C@@H](NC(=O)[C@H](Cc1ccccc1)NC(=O)[C@H](CCC(=O)O)NC(=O)C(C)(C)NC(=O)[C@H](CCC(N)=O)NC(=O)[C@H](C)NC(=O)[C@H](CCCCNC(=O)COCCOCCNC(=O)COCCOCCNC(=O)CC[C@H](NC(=O)CCCCCCCCCCCCC(=O)O)C(=O)O)NC(=O)[C@H](CCCN)NC(=O)[C@H](CC(=O)O)NC(=O)[C@H](CC(C)C)NC(=O)[C@](C)(CC(C)C)NC(=O)[C@@H](NC(=O)[C@H](CO)NC(=O)[C@H](Cc1ccc(OC)cc1)NC(=O)[C@H](CC(=O)O)NC(=O)[C@H](CO)NC(=O)[C@@H](NC(=O)[C@](C)(Cc1ccccc1F)NC(=O)[C@@H](NC(=O)CNC(=O)[C@H](CCC(=O)O)NC(=O)C(C)(C)NC(=O)[C@@H](N)Cc1ccc(O)cc1)[C@@H](C)O)[C@@H](C)O)[C@@H](C)CC)[C@@H](C)CC)C(=O)N[C@@H](CCCCNC(=O)COCCOCCNC(=O)COCCOCCNC(=O)CC[C@H](NC(=O)CCCCCCCCCCCCC(=O)O)C(=O)O)C(=O)NCC(=O)NCC(=O)N1CCC[C@H]1C(=O)N[C@@H](CO)C(=O)N[C@@H](CO)C(=O)NCC(=O)N[C@@H](C)C(=O)N1CCC[C@H]1C(=O)N1CCC[C@H]1C(=O)N1CCC[C@H]1C(=O)N[C@@H](CO)C(N)=O` [Example 260], the EC50 on hGIPR (0.1% bovine casein and 1.0% human serum albumin, 37° C., read-out: hGIPR EC50, nM (SEM, n)) is 3.27 nM; at hGIPR (cAMP, 37° C., 0.1% bovine casein (no human serum albumin), read-out: hGIPR EC50, nM (SEM, n)) it was 0.0239 nM; on hGCGR (0.1% bovine casein and 1.0% human serum albumin, 37° C., read-out: hGCGR EC50, nM (SEM, n)), over 9950 nM; at hGCGR (cAMP, 37° C., 0.1% bovine casein (no human serum albumin), read-out: hGCGR EC50, nM (SEM, n)) it was over 9950 nM. Moreover, the Emax at hGIPR (HEK293, 0.1% bovine casein and 1.0% human serum albumin, 37° C., percent of maximal response to GIP(1-42)NH2, read-out: hGIPR Emax, % ± SEM) is 83%; on hGIPR (HEK293, cAMP, 37° C., 0.1% bovine casein, percent of maximal response to GIP(1-42)NH2, arithmetic mean, read-out: hGIPR Emax, % ± SEM), 113%.
For `CC[C@H](C)[C@H](NC(=O)[C@H](CC(C)C)NC(=O)[C@](C)(Cc1ccc(O)cc1)NC(=O)[C@@H](CCC(=O)O)NC(=O)[C@@H](NC(=O)[C@H](Cc1ccccc1)NC(=O)[C@H](CCC(=O)O)NC(=O)C(C)(C)NC(=O)[C@H](CCC(N)=O)NC(=O)[C@H](C)NC(=O)[C@H](CCCCNC(=O)COCCOCCNC(=O)COCCOCCNC(=O)CC[C@H](NC(=O)CCCCCCCCCCCCC(=O)O)C(=O)O)NC(=O)[C@H](CCCN)NC(=O)[C@H](CC(=O)O)NC(=O)[C@H](CC(C)C)NC(=O)[C@](C)(CC(C)C)NC(=O)[C@@H](NC(=O)[C@H](CO)NC(=O)[C@H](Cc1ccsc1)NC(=O)[C@H](CC(=O)O)NC(=O)[C@H](CO)NC(=O)[C@@H](NC(=O)[C@](C)(Cc1ccccc1F)NC(=O)[C@@H](NC(=O)CNC(=O)[C@H](CCC(=O)O)NC(=O)C(C)(C)NC(=O)[C@@H](N)Cc1ccc(O)cc1)[C@@H](C)O)[C@@H](C)O)[C@@H](C)CC)[C@@H](C)CC)C(=O)N[C@@H](CCC(=O)O)C(=O)NCC(=O)NCC(=O)N[C@@H](CCCCNC(=O)COCCOCCNC(=O)COCCOCCNC(=O)CC[C@H](NC(=O)CCCCCCCCCCCCC(=O)O)C(=O)O)C(=O)N[C@@H](CO)C(=O)N[C@@H](CO)C(=O)NCC(=O)N[C@@H](C)C(=O)N1CCC[C@H]1C(=O)N1CCC[C@H]1C(=O)N1CCC[C@H]1C(=O)N[C@@H](CO)C(N)=O` [Example 146], the Emax at hGIPR (setting [4]) worked out at 76.5%. The EC50 is 0.0198 nM at hGIPR (setting [5]) and over 9950 nM on hGCGR (setting [6]).
For the molecule `CC[C@H](C)[C@H](NC(=O)[C@H](CC(C)C)NC(=O)[C@](C)(Cc1ccc(O)cc1)NC(=O)[C@@H](CCC(=O)O)NC(=O)[C@@H](NC(=O)[C@H](Cc1ccccc1)NC(=O)[C@H](CCC(=O)O)NC(=O)C1(NC(=O)[C@H](CCC(N)=O)NC(=O)[C@H](C)NC(=O)[C@H](CCCCNC(=O)COCCOCCNC(=O)COCCOCCNC(=O)CC[C@H](NC(=O)CCCCCCCCCCCCC(=O)O)C(=O)O)NC(=O)[C@H](CCCN)NC(=O)[C@H](CC(=O)O)NC(=O)[C@H](CC(C)C)NC(=O)[C@](C)(CC(C)C)NC(=O)[C@@H](NC(=O)[C@H](CO)NC(=O)[C@H](Cc2ccncc2)NC(=O)[C@H](CC(=O)O)NC(=O)[C@H](CO)NC(=O)[C@@H](NC(=O)[C@](C)(Cc2ccccc2F)NC(=O)[C@@H](NC(=O)CNC(=O)[C@H](CCC(=O)O)NC(=O)C(C)(C)NC(=O)[C@@H](N)Cc2ccc(O)cc2)[C@@H](C)O)[C@@H](C)O)[C@@H](C)CC)CCCCC1)[C@@H](C)CC)C(=O)N[C@@H](CCC(=O)O)C(=O)NCC(=O)NCC(=O)N[C@@H](CCCCNC(=O)COCCOCCNC(=O)COCCOCCNC(=O)CC[C@H](NC(=O)CCCCCCCCCCCCC(=O)O)C(=O)O)C(=O)N[C@@H](CO)C(=O)N[C@@H](CO)C(=O)NCC(=O)N[C@@H](C)C(=O)N1CCC[C@H]1C(=O)N1CCC[C@H]1C(=O)N1CCC[C@H]1C(=O)N[C@@H](CO)C(N)=O` [Example 171], the Emax at hGIPR (setting [4]) is 95.3%. Further, the EC50 at hGIPR (setting [5]) was 0.0389 nM; on hGCGR (setting [6]), over 9950 nM.
Consider `CC[C@H](C)[C@H](NC(=O)[C@H](CC(C)C)NC(=O)[C@](C)(Cc1ccccc1)NC(=O)[C@H](CCCCNC(=O)COCCOCCNC(=O)COCCOCCNC(=O)CC[C@H](NC(=O)CCCCCCCCCCCCC(=O)O)C(=O)O)NC(=O)[C@@H](NC(=O)[C@H](Cc1ccccc1)NC(=O)[C@H](CCC(=O)O)NC(=O)C(C)(C)NC(=O)[C@H](CCC(N)=O)NC(=O)[C@H](C)NC(=O)[C@H](CCCCNC(=O)COCCOCCNC(=O)COCCOCCNC(=O)CC[C@H](NC(=O)CCCCCCCCCCCCC(=O)O)C(=O)O)NC(=O)[C@H](CCCN)NC(=O)[C@H](CC(=O)O)NC(=O)[C@H](CC(C)C)NC(=O)[C@](C)(CC(C)C)NC(=O)[C@@H](NC(=O)[C@H](CO)NC(=O)[C@H](Cc1ccncc1)NC(=O)[C@H](CC(=O)O)NC(=O)[C@H](CO)NC(=O)[C@@H](NC(=O)[C@](C)(Cc1ccccc1F)NC(=O)[C@@H](NC(=O)CNC(=O)[C@H](CCC(=O)O)NC(=O)C(C)(C)NC(=O)[C@@H](N)Cc1ccc(O)cc1)[C@@H](C)O)[C@@H](C)O)[C@@H](C)CC)[C@@H](C)CC)C(=O)N[C@@H](CCC(=O)O)C(=O)NCC(=O)NCC(=O)N1CCC[C@H]1C(=O)N[C@@H](CO)C(=O)N[C@@H](CO)C(=O)NCC(=O)N[C@@H](C)C(=O)N1CCC[C@H]1C(=O)N1CCC[C@H]1C(=O)N1CCC[C@H]1C(=O)N[C@@H](CO)C(N)=O` [Example 83], for which, at hGIPR (setting [1]), the Emax stood at 89.6 ± 7.35%. The figures for the EC50 at hGIPR (setting [2]) and at hGCGR (setting [3]) were 0.0223 nM and over 9950 nM, respectively.
